Common to all, as to test: NCI-60 cell line screen, 48 h
Test [1] deals with MDA-MB-435.
Test [2] relates to OVCAR-5 ovarian.
The subject of test [3] is OVCAR-8 ovarian.
Test [4] concerns CAKI-1 renal.

Several values for one entry are separate records, joined by “and”; a condition that tells them apart may be missing. Equal entries are not always repeated.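 Assay format: 96-well plates, 48-hour exposure. TGI marks complete inhibition of growth.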 Peptide text beside a SMILES is read from it. * marks the point of attachment. Cbz = O=C(OCc1ccccc1)*

For the compound `CC(=O)OC1OC(C2c3cccc(O)c3C(=O)c3c(O)cc(CO)cc32)C(O)C(O)C1O` (configuration not stated), the TGI in test [1] is 11.6 µM and 14.3 µM; in test [2], 11.7 µM and 18.1 µM; in test [3], 69.3 µM and > 100 µM; in test [4], 7.51 µM and 7.82 µM.
For the compound `CNc1ccc(Cl)cc1C(=O)N1CCC[C@H]1CO`, the TGI in test [1], in test [2], in test [3] and in test [4] was more than 100 µM in each case.
On to `CCOC(=O)/C=C(\C(=O)OCC)n1cc(C)c(=O)n(Cc2cn(COCCOC(C)=O)nn2)c1=O`, for which the TGI came out at 28.2 µM in test [1], 29.5 µM in test [2], 21.3 µM in test [3] and 7.05 µM in test [4].
With `CC(=S)NC=C(C(N)=O)C(N)=O`, the TGI in test [1], in test [2], in test [3] and in test [4] was more than 100 µM throughout.
As to `O=C1CCCc2cc3c(cc21)CC1(C3)Cc2cc3c(cc2C1)C(=O)CCC3`, the TGI in test [2] was more than 62.5 µM; in test [3], 36.3 µM; in test [4], more than 88 µM.
Consider `O=C(Cc1ccccc1)Nc1nc2ccc(Cl)cc2c2nc(-c3ccco3)nn12`, for which the TGI in test [1], in test [2], in test [3] and in test [4] was more than 100 µM throughout.
Take `CCC1=NC(N/N=C/c2ccco2)=N/C1=C\c1ccco1`: the TGI in test [1], in test [2], in test [3] and in test [4] was more than 100 µM throughout.
As for `COc1ccc(N2C(=O)C3c4[nH]c5ccc(OC)cc5c4C4CCC(c5ccccc5)CC4C3C2=O)cc1` (configuration not stated), the TGI in test [1] is 68.4 µM; in test [2], more than 64.5 µM; in test [3], more than 49.2 µM; in test [4], 40.6 µM.
In the same order, the values of `CN(C)c1ccc(C2=C([O-])c3cc(-[n+]4ccccc4)ccc3C2=O)cc1` are more than 100 µM, more than 100 µM, more than 100 µM and more than 100 µM.
As to `O=C(c1ccccc1)N1CCC(Nc2cccnc2)O1` (configuration not stated), the TGI in test [1], in test [2] and in test [3] was more than 100 µM in each case.
`NC(=S)NN=C1Cc2ccccc2C1`: the TGI in test [1], in test [2], in test [3] and in test [4] was more than 100 µM each time.
For the compound `CCCCCCCCCCCCCC/C(C(=O)O)=C(\C)C(=O)O`, the TGI in test [1], in test [2] and in test [3] was more than 100 µM in each case.
As for `COC(=O)C1=C(C(=O)OC)N(c2ccncc2)C(c2ccco2)=CC1c1ccccc1[N+](=O)[O-]` (configuration not stated), the TGI in test [1] was more than 39.8 µM; in test [2] it was 30.6 µM; in test [3] it was 28.8 µM; in test [4], 31.6 µM.
For `C=CCc1cccc(/C(O)=C/C(=O)/C=C/c2ccccc2Cl)c1O` the same measures were more than 100 µM, more than 100 µM, 25.5 µM and more than 100 µM.
In the same order, the values of `CC(C)C(=O)/C=C/c1ccc(Cl)cc1Cl` are 10 µM, 30.7 µM, 22.8 µM and 24.8 µM.
For the compound `O=S(=O)(N1CCCCN(S(=O)(=O)C(F)(F)F)CCCN(S(=O)(=O)C(F)(F)F)CCCCN(S(=O)(=O)C(F)(F)F)CCCN(S(=O)(=O)C(F)(F)F)CCCCN(S(=O)(=O)C(F)(F)F)CCCN(S(=O)(=O)C(F)(F)F)CCCCN(S(=O)(=O)C(F)(F)F)CCC1)C(F)(F)F`, the TGI in test [1] was more than 31.6 µM; in test [2], more than 100 µM; in test [3], more than 31.6 µM; in test [4], more than 31.6 µM.
As to `CCOC(=O)n1ccc2c(C(=O)OC)c(C(=O)OC)cc(/C(=C/C(=O)OC)C(=O)OC)c21`, the TGI in test [1], in test [2], in test [3] and in test [4] was more than 100 µM throughout.
For the compound `N#CCc1nc(-c2cc3ccc(O)cc3oc2=O)cs1`, the TGI in test [1], in test [2], in test [3] and in test [4] was more than 100 µM throughout.
Consider `CCCCCCCCCCCCCCCCCCOC(COP(=O)(O)OCC1OC(n2cc(F)c(=O)[nH]c2=O)CC1O)COP(=O)(O)OCC1OC(n2ccc(N)nc2=O)C(O)C1O` (configuration not stated), for which the TGI in test [1], in test [2], in test [3] and in test [4] was more than 100 µM in each case.
As for `O=C(O)c1ccc(C2=Nc3cccc4cccc(c34)N2)cc1`, the TGI in test [1], in test [3] and in test [4] was more than 100 µM in each case.
Take `COc1ccc(-n2nnc3c(C#N)c(C)c(-c4ccccc4)n3c2=O)cc1`: the TGI in test [2] was more than 57.6 µM; in test [3], more than 70.8 µM; in test [4], more than 100 µM.
Regarding `CCOC(=O)CCC(NC(=O)CNC(=O)CNC(=O)C(CCC(=O)OCC)NC(=O)C(CCC(=O)OCC)NC(=O)C(CCC(=O)OCC)NC(=O)OCc1ccccc1)C(=O)NC(CCC(=O)OCC)C(=O)NC(CCC(=O)OCC)C(=O)OCC` (configuration not stated) (Cbz-E(OEt)E(OEt)E(OEt)GGE(OEt)E(OEt)E(OEt)-OEt; configuration not given here), the TGI in test [1], in test [2], in test [3] and in test [4] was more than 75 µM in each case.
Turning to `C/C(=N\NC(N)=S)C(CN1CCCCC1)C(C1=C(O)c2ccccc2OC1)c1ccccc1` (configuration not stated), the TGI in test [1], in test [2], in test [3] and in test [4] was more than 100 µM each time.
`O=c1[nH]nc(Cc2ccc(Cl)cc2)n1CCO`: the TGI in test [1], in test [2], in test [3] and in test [4] was more than 100 µM in each case.
In the case of `N#CC(C#N)[C@@H]1CCC=C(Sc2ccccc2)[C@H]1Sc1ccccc1`, the TGI is 4.53 µM in test [1], 20.3 µM in test [2], 9.37 µM in test [3] and 8.29 µM in test [4].
In the same order, the values of `Oc1cc(F)cc2cccnc12` are more than 100 µM, more than 100 µM, more than 100 µM and more than 100 µM.
For `C#C[C@@H](OC(=O)c1ccc([N+](=O)[O-])cc1)[C@@H]1C[C@H]2O[C@@H]([C@H](C/C=C/CC)OC(=O)c3ccc([N+](=O)[O-])cc3)C[C@H]2O1` the same measures were more than 100 µM, more than 100 µM, more than 100 µM and more than 100 µM.
For `CN1C(CC(O)c2ccccc2)CCCC1CC(O)(c1ccccc1)c1ccccc1` (configuration not stated), the TGI in test [2] is 32.7 µM; in test [3] it was 43 µM; in test [4] it was more than 100 µM.
As to `COC(OC)[C@@H]1OC[C@H](n2ccc(=O)[nH]c2=O)[C@H]1O`, the TGI in test [1], in test [2] and in test [4] was more than 100 µM throughout.
For the compound `c1cc2nnc1SCCSCCCSCCS2`, the TGI in test [1], in test [2], in test [3] and in test [4] was more than 100 µM in each case.
In the case of `CCOC(=O)COc1cc(-c2ccccc2)nc2cc(F)ccc12`, the TGI in test [1], in test [2], in test [3] and in test [4] was more than 100 µM throughout.
For the compound `CCOC(=O)c1nc2ccc(C(F)(F)F)cc2nc1NCc1ccc(F)cc1`, the TGI in test [1], in test [2], in test [3] and in test [4] was more than 100 µM each time.
As for `CCOC(=O)/C=C(/C(=O)OCC)n1cc(C)c(=O)[nH]c1=O`, the TGI in test [1] amounted to 10.2 µM; in test [2], 13.3 µM; in test [3], 9.81 µM; in test [4], 2.57 µM.
As for `O=C1/C(=C\c2cccc(Oc3ccccc3)c2)SC(c2ccccc2)N1Cc1ccccc1` (configuration not stated), the TGI in test [1] was 76.2 µM; in test [2], more than 100 µM; in test [3], 68.9 µM; in test [4], more than 100 µM.
`Cc1[nH]c2[nH]c(=S)nc(NC(N)=S)c2c1Cc1ccccc1`: the TGI is 36.6 µM in test [1], more than 100 µM in test [2], more than 100 µM in test [3] and more than 100 µM in test [4].
Consider `COc1ccc(OC)c2c1ccc1c(C)c3ccccc3c(C)c12`, for which the TGI in test [1], in test [2], in test [3] and in test [4] was more than 100 µM each time.
For the compound `O=c1oc2ccccc2c(O)c1Cc1ccccc1Cc1c(O)c2ccccc2oc1=O`, the TGI in test [1], in test [2], in test [3] and in test [4] was more than 100 µM throughout.
On to `Oc1c(O)c(Cc2ccccc2)c(Cc2ccccc2)c(Cc2ccccc2)c1Cc1ccccc1`, for which the TGI in test [1], in test [2], in test [3] and in test [4] was more than 10 µM in each case.
As for `O=C1C2CCCCC2C(=O)N1n1c(Cc2ccccc2)n[nH]c1=O` (configuration not stated), the TGI in test [1], in test [2], in test [3] and in test [4] was more than 100 µM each time.
For the compound `CNC(=O)OCC1=C(COC(=O)NC)CN(c2ccc(OC)cc2)C1`, the TGI in test [1], in test [2] and in test [3] was more than 100 µM each time.
With `O=[N+]([O-])c1ccc2nc(/C=C(\O)c3ccccc3)c(NC34CC5CC(CC(C5)C3)C4)nc2c1`, the TGI in test [1], in test [2], in test [3] and in test [4] was more than 10 µM throughout.
With `CN1CCN(c2ccc3nc(-c4ccc5nc(CCCc6ccc(N(CCCl)CCCl)cc6)[nH]c5c4)[nH]c3c2)CC1`, the TGI in test [1], in test [2], in test [3] and in test [4] was more than 100 µM in each case.
For the compound `Cc1ccc(C2SCc3nc4ccccc4n32)cc1` (configuration not stated), the TGI in test [1] is 5.01 µM; in test [2], more than 100 µM; in test [3], 30 µM; in test [4] it was 49.7 µM.
In the same order, the values of `Cc1cc(=O)[nH]c(Sc2ccc([N+](=O)[O-])cc2[N+](=O)[O-])n1` are more than 55.1 µM, 35.2 µM, 30 µM and 28.9 µM.
For `O=C(O)c1ccc2[nH]c(=O)oc2c1` the same measures were more than 100 µM, more than 100 µM, more than 100 µM and more than 100 µM.
For `CCC12CN(C(=O)OC)C3C(Br)C1CCC(=O)C32` (configuration not stated) the same measures were more than 100 µM, more than 100 µM, more than 100 µM and more than 100 µM.
As for `OCCCN=C1N=C(Cl)/C(=C\c2ccccc2)N1`, the TGI in test [1], in test [2], in test [3] and in test [4] was more than 100 µM each time.
`Cc1cc(=O)[nH]c(S(=O)(=O)NC(=O)Nc2cccc(Cl)c2)n1`: the TGI was more than 48.3 µM in test [1], more than 100 µM in test [2], more than 100 µM in test [3] and more than 22.3 µM in test [4].
On to `O=C(/C=C/c1ccc(O)c(O)c1)O[C@H]1CCCC[C@@H]1OC(=O)/C=C/c1ccc(O)c(O)c1`, for which the TGI is 27.1 µM in test [1], 33.9 µM in test [2], 57.1 µM in test [3] and more than 100 µM in test [4].
For `COc1ccc(-c2n[nH]c3nc4ccccc4n3c2=O)cc1` the same measures were more than 100 µM, more than 100 µM, more than 100 µM and more than 100 µM.
With `N#Cc1n[nH]n(-c2ccccc2)c1=O`, the TGI in test [1], in test [2], in test [3] and in test [4] was more than 100 µM throughout.
As for `CC(O)/C=C/C1OC(=O)CC1Nc1ccc(C=O)cc1` (configuration not stated), the TGI in test [1], in test [2] and in test [3] was more than 100 µM each time.
Regarding `COc1cccc(C=C(C#N)C#N)c1OC`, the TGI in test [2], in test [3] and in test [4] was more than 100 µM in each case.

Values taken from PubChem BioAssay (NCI).
